US20230310634A1, “ANTI-HUMAN VISTA ANTIBODIES AND USE THEREOF” (IMMUNEXT, INC., priority 2020, published 2023)
Entries after “also recorded” stand apart in the source; their conditions may differ.

Key:
[1] = tested on: LPS stimulated human PBMCs; experiment: In vitro potency of steroid payloads in LPS stimulated human PBMCs (IL-1β, IL-6 ELISA); format: cell-based
FKBP5 [2] = experiment: FKBP5 transcriptional activation in isolated human Tregs (qRT-PCR); format: cell-based; conditions: Experiment 3; 20 nM payload or molar equivalent; 2 donors
Text: (§1) To monitor/confirm GC delivery and activity, we measured by quantitative Real Time PCR (qRT-PCR) the transcriptional activation of FKBP5 that is a direct and robust biomarker of glucocorticoid activity (JCEM 101: 4305-4312, 2016). We conducted this assessment on isolated human monocytes, regulatory T cells (T regs) and B cells following in vitro treatment with ADCs.
For monocytes vs B cell analyses, one blood donor collection was used for the single drug concentration experiment; blood from a separate single donor collection was used to assess drug dose response. For the regulatory T cell (Treg) analysis, blood from two separate donors was used.
(§2) The various immune populations were isolated using different cell isolation kits and following manufacturer instructions: • EasySep Human monocyte enrichment kit without CD16 depletion (StemCell cat #19058) • Pan B cell isolation kit, human (Miltenyi Biotec, 130-101-638) • EasySep™ Human CD4^+ CD127 low CD49d− regulatory T cell enrichment Kit (StemCell cat #19232) […]
(§3) After one wash with PBS, RNA was isolated from cell pellets using either the RNeasy Plus Mini kit (Qiagen, PN: 74136) or NucleoSpin RNA Plus (Macherey-Nagel #740984.250). […] RNA concentration was assessed by UV spectroscopy using a Nanodrop 2000. […]
(§4) Quantitative Real-Time PCR was done using Taqman master mix 2× kit (#4369016) and run on a QuantStudio3 from Applied Biosystem. […]

FKBP5 [3] = experiment: FKBP5 transcription in peritoneal resident macrophages and spleen monocytes after in vivo treatment; set-up: species or system mice; conditions: from other studies (previous example)
Experimental: ADCs were then injected from 17 h to 7 days before mouse euthanasia and cell isolation.
After euthanasia, mice were injected in the peritoneal cavity with 7 ml of PBS/0.5% BSA/2 mM EDTA. After a brief massage of the peritoneum, a small incision was performed and the peritoneal lavage collected. PRM were isolated using negative selection (Miltenyi kit, ref 130-110-434). Spleen were dissected and dissociated mechanically; monocytes were isolated using […] (Stem Cell, EasySep™ Mouse CD11 b Positive Selection Kit II).
Cell pellets from different tissues were resuspended in 0.4 ml RNeasy lysis buffer from RNeasy Plus Mini kit (Qiagen, PN: 74136) and homogenize with 20G needle for 5 times. RNA was isolated following manufacturer's instructions and RNA eluted in […] H2O (RNase/DNase free). RNA concentration was assessed on Nanodrop.
Reverse transcription was done using Taqman reverse transcription reagents (#N8080234) and following manufacturer's instructions. Quantitative Real-Time PCR was done using Taqman master mix 2× kit (#4369016) and Taqman primers for mouse FKBP5 (Mm00487401_m1), and mouse HPRT as housekeeping gene (Mm446968_m1) and run on a QuantStudio3 from Applied Biosystem. […]

[4] = Plasma corticosterone levels after repeated treatment; format: in vivo, mice; conditions: bleed on day 5
Experimental: Based on the foregoing we assessed the impact of long-term treatment with an exemplary antibody drug conjugate (ADC) INX201J, and an anti-human VISTA monoclonal antibody linked to a glucocorticoid (GC) payload, on the HPA axis, specifically the corticosterone basal levels. […] The experiment was performed in female mice that were first acclimated for a week to a specific handler that would carry subsequently all injections and bleed to limit stress-induced changes in basal level of GC.
On day 5, mice were bled and their corticosterone levels assessed by ELISA.
The experiment was performed in female hVISTA KI mice. […] A control group was included that received daily PBS injections. On day 5, mice were bled and their plasma corticosterone levels assessed by ELISA.
The ELISA was conducted following the manufacturer's included protocol using Arbor Assays (cat #K014-H5) Corticosterone 5 pack ELISA Kit.

[5] = mouse, in vivo; cited from earlier work
FKBP5 [6] = experiment: FKBP5 transcriptional activation in isolated human monocytes (qRT-PCR); format: cell-based; conditions: Experiment 1; 20 nM payload or molar equivalent; 1 day; relative to no-treatment control
Text: as §1
(§5) Monocytes or B cells were isolated from healthy donor blood samples and treated with free steroid, anti-VISTA conjugated steroid, or conjugated isotype control. RNA was isolated, and change in FKBP5 transcript level assessed by qPCR.
as §2, §3, §4

FKBP5 [7] = experiment: FKBP5 transcriptional activation in isolated human B cells (qRT-PCR); format: cell-based; conditions: Experiment 1; 20 nM payload or molar equivalent; 1 day; relative to no-treatment control
Text: as §1, §5, §2, §3, §4

For C[C@]12C=CC(=O)C=C1CC[C@@H]1[C@@H]2[C@@H](O)C[C@@]2(C)[C@H]1C[C@H]1O[C@@H](c3ccc(CC45CC(N)(C4)C5)cc3)O[C@]12C(=O)CO [INX-SM-3, (6aR,6bS,7S,8aS,8bS,10R,11aR,12aS,12bS)-10-(4-((3-aminobicyclo[1.1.1]pentan-1-yl)methyl)phenyl)-7-hydroxy-8b-(2-hydroxyacetyl)-6a,8a-dimethyl-1,2,6a,6b,7,8,8a,8b,11a,12,12a,12b-dodecahydro-4H-naphtho[2′,1′:4,5]indeno[1,2-d][1,3]dioxol-4-one], which “steroid potency as free payloads in LPS-activated human PBMCS (conclusions)” value [1] is on record?
Its value is “varying degrees of dose dependent steroid potency”.

What about the “potency relative to the other compounds of the experiment” value ([1]; 1 ng/mL LPS, 24 hr) of the same molecule?
Its value is “most potent compound among these three; also recorded: most potent compound among these compounds tested”.

And the “IL-1β and IL-6 production” value ([1]; Experiment 1, 1000-1 nM, 1 ng/mL LPS, 24 hr, n=1 donor)?
Its value is “inhibit both IL-1β and IL-6 production”.

What about the IL-1β production ([1]; Experiment 2, 1000-1 nM, 1 ng/mL LPS, 24 hr, n=1 donor) of the same molecule?
Its IL-1β production is “show inhibition in IL-1β production”.

And the “FKBP5 transcription in Tregs” value (FKBP5 [2])?
The value was “increased FKBP5 transcription”.

Which pharmacodynamic range (FKBP5 [3]) does the source give for C[C@@H]1C[C@H]2[C@@H]3CCC4=CC(=O)C=C[C@]4(C)[C@@]3(F)[C@@H](O)C[C@]2(C)[C@@]1(O)C(=O)CO [Dex, Dexamethasone] here?
Its pharmacodynamic range is under 24 h.

What about the “basal plasma corticosterone levels” value ([4]; Dex 0.2 mg/Kg daily for 4 days) of the same molecule?
The value was “limited though significant impact”.

What about the “basal plasma corticosterone levels” value ([4]; Dex 2 mg/Kg daily for 4 days) of the same molecule?
Its value is “dramatically decreased”.

For C[C@@H]1C[C@H]2[C@@H]3CCC4=CC(=O)C=C[C@]4(C)[C@@]3(F)[C@@H](O)C[C@]2(C)[C@@]1(O)C(=O)CO [dexamethasone], which “toxicity in this IBD model (literature)” value [5] is on record?
The value was “causes toxicity in this IBD model”.

With C[C@]12C=CC(=O)C=C1CC[C@@H]1[C@@H]2[C@@H](O)C[C@@]2(C)[C@H]1C[C@H]1O[C@@H](c3ccc(Cc4cccc(N)c4)cc3)O[C@]12C(=O)CO [free J payload] as the molecule, how does the “FKBP5 transcription in monocytes” value (FKBP5 [6]) read?
Its value is “robust increase in FKBP5 transcription”.

And the “FKBP5 transcription in B cells” value (FKBP5 [7])?
The value was “robust increase in FKBP5 transcription”.
